{
  "source": "patent US20080306115A1",
  "about": "“Midazole-4-Carboxamide Derivatives For Use As Cb1 Modulators” (priority 2005, published 2008)",
  "biological_target": "T1, CB1 receptor (Homo sapiens, UniProt P21554)",
  "T1 construct": "expressed in transfected cells",
  "T1 sequence (P21554 whole entry)": "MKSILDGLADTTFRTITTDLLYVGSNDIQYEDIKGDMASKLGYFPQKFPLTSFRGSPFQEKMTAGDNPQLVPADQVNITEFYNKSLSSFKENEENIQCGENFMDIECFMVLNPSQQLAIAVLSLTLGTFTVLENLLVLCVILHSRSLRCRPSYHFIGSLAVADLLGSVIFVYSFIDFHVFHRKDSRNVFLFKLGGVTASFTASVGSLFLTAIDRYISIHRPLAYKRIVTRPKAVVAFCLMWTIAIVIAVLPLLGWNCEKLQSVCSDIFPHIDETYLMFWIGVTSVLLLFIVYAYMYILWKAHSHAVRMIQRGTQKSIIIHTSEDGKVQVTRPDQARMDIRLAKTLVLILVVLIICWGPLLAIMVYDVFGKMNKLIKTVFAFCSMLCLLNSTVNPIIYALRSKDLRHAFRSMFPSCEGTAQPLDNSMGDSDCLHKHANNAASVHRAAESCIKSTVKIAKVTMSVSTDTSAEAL",
  "test": "[35S]-GTPγS binding assay on membranes from cells stably transfected with the CB1 gene, antagonism of CP55940",
  "type": "biochemical",
  "conditions": "half maximal inhibition of GTPγS binding, EC80 concentration of agonist CP55940, 30° C., 45 min",
  "procedure": "10 μg of membranes prepared from cells stably transfected with the CB1 gene were suspended in […] of 100 mM NaCl, 5 mM MgCl2, 1 mM EDTA, 50 mM HEPES (pH 7.4), 1 mM DTT, 0.1% BSA and 100 μM GDP. To this was added an EC80 concentration of agonist (CP55940), the required concentration of test compound and 0.1 μCi [^35S]-GTPγS. The reaction was allowed to proceed at 30° C. for 45 min. Samples were then transferred on to GF/B filters using a cell harvester and washed with wash buffer (50 mM Tris (pH 7.4), 5 mM MgCl2, 50 mM NaCl). Filters were then covered with scintilant and counted for the amount of [^35S]-GTPγS retained by the filter.\nActivity is measured in the absence of all ligands (minimum activity) or in the presence of an EC80 concentration of CP55940 (maximum activity). These activities are set as 0% and 100% activity respectively. At various concentrations of novel ligand, activity is calculated as a percentage of the maximum activity and plotted. The data are fitted using the equation y=A+((B−A)/1+((C/x) ÙD)) and the IC50 value determined as the concentration required to give half maximal inhibition of GTPγS binding under the conditions used.",
  "data": [
    {"smiles": "Cc1c(C(=O)Nc2ccc(F)nc2)nc(-c2ccc(Cl)cc2Cl)n1-c1ccc(OS(=O)(=O)CCC(F)(F)F)cc1", "note": "[Example 3, 4-(2-(2,4-dichlorophenyl)-4-{[(6-fluoropyridin-3-yl)amino]carbonyl}-5-methyl-1H-imidazol-1-yl)phenyl 3,3,3-trifluoropropane-1-sulfonate]", "values": [
      {"measurement": "IC50", "value": 1.2, "unit": "nM"}
    ]}
  ]
}
